Measurements reported in US20250353853A1, “FLAVIVIRUS INHIBITORS” (IRBM S.P.A., priority 2022, published 2025).
Where a name gives a salt, the structure may show the parent alone.

System: ZIKV replicon in Vero cells
Assay: ZIKV Replication Inhibition Assay (replicon, NanoLuc)
Conditions: Zika virus, Vero, 72 h, read-out: Zika Replicon EC50

Q: O=C([N-]c1c[n+]([C@H](CO)c2ccccc2)no1)Nc1cccc(C(F)(F)F)c1 [Example 31, (S)-(3-(2-hydroxy-1-phenylethyl)-1,2,3-oxadiazol-3-ium-5-yl)((3-(trifluoromethyl)phenyl)carbamoyl)amide] was tested. Which EC50 did it give?
A: Its EC50 is over 20 µM.

Q: Cc1noc(C)c1-c1ccc(C[n+]2cc([N-]C(=O)Nc3cccc(C(F)(F)F)c3)on2)nc1 [Example 109, (3-((5-(3,5-dimethylisoxazol-4-yl)pyridin-2-yl)methyl)-1,2,3-oxadiazol-3-ium-5-yl)((3-(trifluoromethyl)phenyl)carbamoyl)amide] was tested. Which EC50 did it give?
A: Its EC50 is under 0.1 µM.

Q: Which EC50 does the source give for CC(c1ccccc1)[n+]1cc([N-]C(=O)Nc2cccc(C(F)(F)F)c2)on1 (stereo not drawn) [Example 38, (3-(1-phenylethyl)-1,2,3-oxadiazol-3-ium-5-yl)((3-(trifluoromethyl)phenyl)carbamoyl)amide] here?
A: Its EC50 is 1 to 20 µM.

Q: For O=C([N-]c1c[n+](C2(c3ccccc3)CC2)no1)Nc1cccc(C(F)(F)F)c1 [Example 25, (3-(1-phenylcyclopropyl)-1,2,3-oxadiazol-3-ium-5-yl)((3-(trifluoromethyl)phenyl)carbamoyl)amide], which EC50 is on record?
A: Its EC50 is 1 to 20 µM.

Q: How did the EC50 turn out when O=C([N-]c1c[n+](Cc2ccc(-c3ccsc3)cc2)no1)Nc1cccc(C(F)(F)F)c1 [Example 20, (3-(4-(thiophen-3-yl)benzyl)-1,2,3-oxadiazol-3-ium-5-yl)((3(trifluoromethyl)phenyl)carbamoyl)amide] was run?
A: The EC50 was 0.1 to 1 µM.

Q: Which EC50 does the source give for COc1ncc(-c2ccc(C[n+]3cc([N-]C(=O)Nc4cccc(C#N)c4)on3)cc2)c(C)n1 [Example 114, ((3-cyanophenyl)carbamoyl)(3-(4-(2-methoxy-4-methylpyrimidin-5-yl)benzyl)-1,2,3-oxadiazol-3-ium-5-yl)amide] here?
A: Its EC50 is 1 to 20 µM.

Q: With Cc1ncncc1-c1ccc([C@H](C)[n+]2cc([N-]C(=O)Nc3cccc(C(F)(F)F)c3)on2)cc1 [Example 79, (S)-(3-(1-(4-(4-methylpyrimidin-5-yl)phenyl)ethyl)-1,2,3-oxadiazol-3-ium-5-yl)((3-(trifluoromethyl)phenyl)carbamoyl)amide] as the molecule, how does the EC50 read?
A: The EC50 was under 0.1 µM.

Q: How did the EC50 turn out when Cc1ncn(C)c1-c1ccc(C[n+]2cc([N-]C(=O)Nc3cccc(C(F)(F)F)c3)on2)cc1 [Example 98, (3-(4-(1,4-dimethyl-1H-imidazol-5-yl)benzyl)-1,2,3-oxadiazol-3-ium-5-yl)((3-(trifluoromethyl)phenyl)carbamoyl)amide] was run?
A: The EC50 was 0.1 to 1 µM.

Q: How did the EC50 turn out when COc1ncncc1-c1cccc(C[n+]2cc([N-]C(=O)Nc3cccc(C(F)(F)F)c3)on2)c1 [Example 84, (3-(3-(4-methoxypyrimidin-5-yl)benzyl)-1,2,3-oxadiazol-3-ium-5-yl)((3-(trifluoromethyl)phenyl)carbamoyl)amide] was run?
A: The EC50 was 0.1 to 1 µM.

Q: How did the EC50 turn out when NCc1ccccc1-c1ccc(C[n+]2cc([N-]C(=O)Nc3cccc(C(F)(F)F)c3)on2)nc1 [Example 121, (3-((5-(2-(aminomethyl)phenyl)pyridin-2-yl)methyl)-1,2,3-oxadiazol-3-ium-5-yl)((3-(trifluoromethyl)phenyl)carbamoyl)amide] was run?
A: Its EC50 is 0.1 to 1 µM.

Q: How did the EC50 turn out when O=C([N-]c1c[n+](Cc2ccc(-c3ccccc3)cc2)no1)Nc1cccc(C(F)(F)F)c1 [Example 17, (3-([1,1′-Biphenyl]-4-ylmethyl)-1,2,3-oxadiazol-3-ium-5-yl)((3-(trifluoromethyl)phenyl)carbamoyl)amide] was run?
A: The EC50 was 0.1 to 1 µM.

Q: How did the EC50 turn out when O=C([N-]c1c[n+](-c2ccccc2)no1)Nc1cccc(C(F)(F)F)c1 [Example 7, (3-phenyl-1,2,3-oxadiazol-3-ium-5-yl)((3-(trifluoromethyl)phenyl)carbamoyl) amide] was run?
A: The EC50 was 1 to 20 µM.

Q: Cc1ncnc(C)c1-c1ccc(C[n+]2cc([N-]C(=O)Nc3cccc(C(F)(F)F)c3)on2)cc1 [Example 81, (3-(4-(4,6-dimethylpyrimidin-5-yl)benzyl)-1,2,3-oxadiazol-3-ium-5-yl)((3-(trifluoromethyl)phenyl)carbamoyl)amide] was tested. Which EC50 did it give?
A: Its EC50 is under 0.1 µM.

Q: With NC[C@H](Cc1ccc(-c2ccccc2)cc1)[n+]1cc([N-]C(=O)Nc2cccc(C(F)(F)F)c2)on1 [Example 65, (S)-(3-(1-([1,1′-biphenyl]-4-yl)-3-aminopropan-2-yl)-1,2,3-oxadiazol-3-ium-5-yl)((3-(trifluoromethyl)phenyl)carbamoyl)amide formate] as the molecule, how does the EC50 read?
A: Its EC50 is 1 to 20 µM.

Q: How did the EC50 turn out when Cc1nc(OCCO)ncc1-c1ccc(C[n+]2cc([N-]C(=O)Nc3cccc(C(F)(F)F)c3)on2)cc1 [Example 89, (3-(4-(2-(2-hydroxyethoxy)-4-methylpyrimidin-5-yl)benzyl)-1,2,3-oxadiazol-3-ium-5-yl)((3-(trifluoromethyl)phenyl)carbamoyl)amide] was run?
A: Its EC50 is 0.1 to 1 µM.

Q: How did the EC50 turn out when CC(Cc1ccccc1)[n+]1cc([N-]C(=O)Nc2ccc3ccccc3c2)on1 (stereo not drawn) [Example 3, (Naphthalen-2-ylcarbamoyl)(3-(1-phenylpropan-2-yl)-1,2,3-oxadiazol-3-ium-5-yl)amide] was run?
A: Its EC50 is over 20 µM.

Q: Cc1cc(C[n+]2cc([N-]C(=O)Nc3cccc(C(F)(F)F)c3)on2)ccc1-c1cncnc1 [Example 87, (3-(3-methyl-4-(pyrimidin-5-yl)benzyl)-1,2,3-oxadiazol-3-ium-5-yl)((3-(trifluoromethyl)phenyl)carbamoyl)amide] was tested. Which EC50 did it give?
A: Its EC50 is 0.1 to 1 µM.

Q: With C=C(Cc1ccccc1)[n+]1cc([N-]C(=O)Nc2cccc(C(F)(F)F)c2)on1 [Example 36, (3-(3-phenylprop-1-en-2-yl)-1,2,3-oxadiazol-3-ium-5-yl)((3-(trifluoromethyl)phenyl)carbamoyl)amide] as the molecule, how does the EC50 read?
A: Its EC50 is over 20 µM.

Q: Which EC50 does the source give for O=C([N-]c1c[n+](Cc2ccc(-c3cncnc3C(F)(F)F)cc2)no1)Nc1cccc(C(F)(F)F)c1 [Example 80, ((3-(trifluoromethyl)phenyl)carbamoyl)(3-(4-(4-(trifluoromethyl)pyrimidin-5-yl)benzyl)-1,2,3-oxadiazol-3-ium-5-yl)amide] here?
A: Its EC50 is under 0.1 µM.

Q: How did the EC50 turn out when O=C([N-]c1c[n+](Cc2ccc(-c3cnn(C4CCNCC4)c3)nc2)no1)Nc1cccc(C(F)(F)F)c1 [Example 117, (3-((6-(1-(piperidin-4-yl)-1H-pyrazol-4-yl)pyridin-3-yl)methyl)-1,2,3-oxadiazol-3-ium-5-yl)((3-(trifluoromethyl)phenyl)carbamoyl)amide] was run?
A: Its EC50 is 1 to 20 µM.

Q: For Cc1ncncc1-c1csc(C[n+]2cc([N-]C(=O)Nc3cccc(C(F)(F)F)c3)on2)c1 [Example 110, (3-((4-(4-methylpyrimidin-5-yl)thiophen-2-yl)methyl)-1,2,3-oxadiazol-3-ium-5-yl)((3-(trifluoromethyl)phenyl)carbamoyl)amide], which EC50 is on record?
A: The EC50 was 0.1 to 1 µM.

Q: CC(Cc1ccccc1)[n+]1cc([N-]C(=O)Nc2cccc(Cl)c2)on1 (stereo not drawn) [Example 8, ((3-chlorophenyl)carbamoyl)(3-(1-phenylpropan-2-yl)-1,2,3-oxadiazol-3-ium-5-yl)amide] was tested. Which EC50 did it give?
A: The EC50 was over 20 µM.

Q: Which EC50 does the source give for O=C([N-]c1c[n+](Cc2ccc(-c3cncnc3)cn2)no1)Nc1cccc(C(F)(F)F)c1 [Example 108, (3-((5-(pyrimidin-5-yl)pyridin-2-yl)methyl)-1,2,3-oxadiazol-3-ium-5-yl)((3-(trifluoromethyl)phenyl)carbamoyl)amide] here?
A: The EC50 was 0.1 to 1 µM.

Q: For COc1ncc(-c2ccc(C[n+]3cc([N-]C(=O)Nc4cccc(Cl)c4)on3)cc2)c(C)n1 [Example 113, ((3-chlorophenyl)carbamoyl)(3-(4-(2-methoxy-4-methylpyrimidin-5-yl)benzyl)-1,2,3-oxadiazol-3-ium-5-yl)amide], which EC50 is on record?
A: Its EC50 is 0.1 to 1 µM.
